Measurements as given in patent EP0153845A2, “CRF analogs” (THE SALK INSTITUTE FOR BIOLOGICAL STUDIES, priority 1984, dated 1985).
Square brackets hold non-standard residues; d marks the D form. Ends that are not written are not given here. Peptide text beside a SMILES is read from it. hArg = N=C(N)NCCCC[C@H](N)C(=O)O; Nle = CCCC[C@H](N)C(=O)O

Columns and labels:
[1] = molecular target: T1, cultured rat pituitary cells (Rattus norvegicus, UniProt P35353); assay: Block of ACTH and β-endorphin secretion by cultured rat pituitary cells by CRF antagonists (procedure of Example XLIII); format: cell-based; conditions: general procedure of Example XLIII
T1 sequence (P35353 24-415): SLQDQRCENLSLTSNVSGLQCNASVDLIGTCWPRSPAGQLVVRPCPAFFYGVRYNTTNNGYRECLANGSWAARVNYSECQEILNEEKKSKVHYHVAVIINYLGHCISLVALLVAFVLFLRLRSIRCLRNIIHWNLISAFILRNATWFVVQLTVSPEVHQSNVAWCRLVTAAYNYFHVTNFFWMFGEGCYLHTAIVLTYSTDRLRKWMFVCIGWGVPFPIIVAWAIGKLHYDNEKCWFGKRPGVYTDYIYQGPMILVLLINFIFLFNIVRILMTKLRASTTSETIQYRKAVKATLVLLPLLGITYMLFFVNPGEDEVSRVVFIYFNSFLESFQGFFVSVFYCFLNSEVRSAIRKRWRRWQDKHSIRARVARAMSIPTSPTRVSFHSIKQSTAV
Protocol: The effectiveness of synthetic CRF antagonists to block the secretion of ACTH and B-endorphin by cultured rat pituitary cells is measured using the procedure as generally set forth in Vale et al., Endocrinology, 91, 562 (1972). In vivo testing is carried out using the general procedure set forth in C. Rivier et al., Science, 218, 377 (1982).

[2] = molecular target: T1, cultured rat pituitary cells; assay: Stimulation of ACTH and β-endorphin secretion by cultured rat pituitary cells (general procedure of Example III); format: cell-based; conditions: general procedure of Example III
Protocol: The synthetic peptide AHC and oCRF were examined for their effects on the secretion of ACTH and B-endorphin in vitro and was also in vivo. The potency of synthetic oCRF to stimulate the secretion of ACTH and β-endorphin by cultured rat pituitary cells was measured using the procedure as generally set forth in Endocrinology, 91, 562 (1972). […] In.vivo testing is carried out using the general procedure set forth in C. Rivier et al., Science, 218, 377 (1982).

[3] = Lowering of blood pressure, in vivo testing by the general procedure of Example III

Row | Compound | secretion of ACTH and β-END-LI (antagonist test) [1] | secretion of ACTH and β-END-LI [2] | lowering of blood pressure [3]
1 | CCCC[C@H](N)C(=O)N[C@@H](CC(=O)O)C(=O)N[C@@H](CC(C)C)C(=O)N[C@@H](CO)C(=O)N[C@@H](Cc1ccccc1)C(=O)N[C@@H](Cc1c[nH]cn1)C(=O)N[C@@H](CC(C)C)C(=O)N[C@@H](CC(C)C)C(=O)N[C@@H](CCCNC(=N)N)C(=O)N[C@@H](CCC(=O)O)C(=O)N[C@H](C(=O)N[C@@H](CC(C)C)C(=O)N[C@@H](CCC(=O)O)C(=O)N[C@@H](CCSC)C(=O)N[C@@H](C)C(=O)N[C@@H](CCCNC(=N)N)C(=O)N[C@@H](C)C(=O)N[C@@H](CCC(=O)O)C(=O)N[C@@H](CCC(N)=O)C(=O)N[C@@H](CC(C)C)C(=O)N[C@@H](C)C(=O)N[C@@H](CCC(N)=O)C(=O)N[C@@H](CCC(N)=O)C(=O)N[C@@H](C)C(=O)N[C@@H](Cc1c[nH]cn1)C(=O)N[C@@H](CC(C)C)C(=O)N[C@@H](CC(N)=O)C(=O)N[C@@H](CCCNC(=N)N)C(=O)N[C@@H](CCCCN)C(=O)N[C@@H](CC(C)C)C(=O)N[C@@H](CCSC)C(=O)N[C@@H](CCC(=O)O)C(=O)N[C@H](C(=O)N[C@H](C(N)=O)[C@@H](C)CC)[C@@H](C)CC)C(C)C [[Nle^8, Ser^ll, Leu^33]-hCRF(8-41)] (H-[Nle]DLSFHLLREVLEMARAEQLAQQAHLNRKLMEII-NH2) | inhibits |  | 
2 | H-IDLTFHLLRNMIEMARNENQREQAGLNRKYLDEV-NH2 [Carp Urotensin 1(8-41)] | inhibits |  | 
3 | LSLELLRKMIEARKQEKEKQQAANNRLLLDII-NH2 | inhibits |  | 
4 | H-DLTFELLREVLEVARAEQLAQQAHSNRKLMEII-NH2 [[G1u^13, Val^21]-hCRF(9-41)] | inhibits |  | 
5 | CCCC[C@H](NC(=O)[C@H](CCC(=O)O)NC(=O)[C@H](CC(C)C)NC(=O)[C@H](CCCC)NC(=O)[C@H](CCC(=O)O)NC(=O)[C@H](CCCNC(=N)N)NC(=O)[C@H](CC(C)C)NC(=O)[C@H](CC(C)C)NC(=O)[C@H](Cc1c[nH]cn1)NC(=O)[C@H](Cc1ccccc1)NC(=O)[C@@H](NC(=O)[C@H](CC(C)C)NC(=O)[C@H](CC(=O)O)NC(=O)[C@@H](N)CC(C)C)[C@@H](C)O)C(=O)N[C@@H](C)C(=O)N[C@@H](CCCCN)C(=O)N[C@@H](C)C(=O)N[C@@H](CCC(=O)O)C(=O)N[C@@H](CCC(N)=O)C(=O)N[C@@H](CCC(=O)O)C(=O)N[C@@H](C)C(=O)N[C@@H](CCC(=O)O)C(=O)N[C@@H](CCC(N)=O)C(=O)N[C@@H](C)C(=O)N[C@@H](C)C(=O)N[C@@H](CC(C)C)C(=O)N[C@@H](CC(N)=O)C(=O)N[C@@H](CCCNC(=N)N)C(=O)N[C@@H](CC(C)C)C(=O)N[C@@H](CC(C)C)C(=O)N[C@@H](CC(C)C)C(=O)N[C@@H](CCC(=O)O)C(=O)N[C@@H](CCC(=O)O)C(=O)N[C@@H](C)C(N)=O [[Nle^18,21]-AHC(8-41)] (H-LDLTFHLLRE[Nle]LE[Nle]AKAEQEAEQAALNRLLLEEA-NH2) | inhibits |  | 
6 | H-Asp-CML-Thr-Leu-Glu-CML-CML-Arg-Glu-Met-CML-Glu-Met-CMA-Lys-Ala-Glu-Gln-CML-Ala-Glu-Gln-Ala-CMA-CML-Asn-Arg-Leu-CML-Leu-Glu-Glu-. CMA-NB2 | inhibits |  | 
7 | CCCC[C@H](NC(=O)[C@H](CCC(=O)O)NC(=O)[C@H](CC(C)C)NC(=O)[C@H](CCCC)NC(=O)[C@H](CCC(=O)O)NC(=O)[C@H](CCCNC(=N)N)NC(=O)[C@H](CC(C)C)NC(=O)[C@H](CC(C)C)NC(=O)[C@H](Cc1c[nH]cn1)NC(=O)[C@H](Cc1ccccc1)NC(=O)[C@@H](NC(=O)[C@@H](N)CC(C)C)[C@@H](C)O)C(=O)N[C@@H](C)C(=O)N[C@@H](CCCCN)C(=O)N[C@@H](C)C(=O)N[C@@H](CCC(=O)O)C(=O)N[C@@H](CCC(N)=O)C(=O)N[C@@H](CCC(=O)O)C(=O)N[C@@H](C)C(=O)N[C@@H](CCC(=O)O)C(=O)N[C@@H](CCC(N)=O)C(=O)N[C@@H](C)C(=O)N[C@@H](C)C(=O)N[C@@H](CC(C)C)C(=O)N[C@@H](CC(N)=O)C(=O)N[C@@H](CCCNC(=N)N)C(=O)N[C@@H](CC(C)C)C(=O)N[C@@H](CC(C)C)C(=O)N[C@@H](CC(C)C)C(=O)N[C@@H](CCC(=O)O)C(=O)N[C@@H](CCC(=O)O)C(=O)N[C@@H](C)C(N)=O [[Nle^18,21]-AHC(10-41)] (H-LTFHLLRE[Nle]LE[Nle]AKAEQEAEQAALNRLLLEEA-NH2) | inhibits |  | 
8 | H-LDLTLELLREMLEMEKAEKEAEQAALNRLLLEEA-NH2 [[G1u^13,22, Leu^l2, Lys^26]-AHC(8-41)] | inhibits |  | 
9 | CC[C@H](C)[C@H](NC(=O)[C@H](CC(=O)O)NC(=O)[C@H](CC(C)C)NC(=O)[C@H](CC(C)C)NC(=O)[C@H](CCCCN)NC(=O)[C@H](CCCNC(=N)N)NC(=O)[C@H](CC(N)=O)NC(=O)[C@H](CO)NC(=O)[C@H](Cc1c[nH]cn1)NC(=O)[C@H](C)NC(=O)[C@H](CCC(N)=O)NC(=O)[C@H](CCC(N)=O)NC(=O)[C@H](C)NC(=O)[C@H](CC(C)C)NC(=O)[C@H](CCC(N)=O)NC(=O)[C@H](CC(=O)O)NC(=O)[C@H](C)NC(=O)[C@H](CCCCN)NC(=O)[C@H](CC(=O)O)NC(=O)[C@H](CCSC)NC(=O)[C@H](CCC(=O)O)NC(=O)[C@H](CC(C)C)NC(=O)[C@@H](NC(=O)[C@H](CCC(=O)O)NC(=O)[C@H](CCCNC(=N)N)NC(=O)[C@H](CC(C)C)NC(=O)[C@H](CC(C)C)NC(=O)[C@H](Cc1c[nH]cn1)NC(=O)[C@H](Cc1ccccc1)NC(=O)[C@@H](NC(=O)[C@H](CC(C)C)NC(=O)[C@H](CC(=O)O)NC(=O)[C@H](CC(C)C)NC(=O)[C@H](CO)NC(=O)[C@@H](NC(=O)[C@H]1CCCN1)[C@@H](C)CC)[C@@H](C)O)C(C)C)C(=O)N[C@@H](C)C(N)=O [[D-Pro^4,Asp^22]-oCRF(4-41)] (H-[dP]ISLDLTFHLLREVLEMDKADQLAQQAHSNRKLLDIA-NH2) |  | stimulates | very significant lowering of blood pressure
10 | CC[C@H](C)[C@H](NC(=O)[C@H](CCC(=O)O)NC(=O)[C@H](CC(=O)O)NC(=O)[C@H](CCSC)NC(=O)[C@H](CC(C)C)NC(=O)[C@H](CCCCNC(=N)N)NC(=O)[C@H](CCCNC(=N)N)NC(=O)[C@H](CC(N)=O)NC(=O)[C@H](CC(N)=O)NC(=O)[C@H](C)NC(=O)[C@H](C)NC(=O)[C@H](CCC(N)=O)NC(=O)[C@H](CCC(N)=O)NC(=O)[C@H](CCCCN)NC(=O)[C@H](CC(C)C)NC(=O)[C@H](CCCCN)NC(=O)[C@H](CCC(=O)O)NC(=O)[C@H](CCC(N)=O)NC(=O)[C@H](CCCCN)NC(=O)[C@H](CCC(=O)O)NC(=O)[C@@H](NC(=O)[C@H](CCC(=O)O)NC(=O)[C@@H](NC(=O)[C@H](CCSC)NC(=O)[C@H](CCCCN)NC(=O)[C@H](CCCNC(=N)N)NC(=O)[C@H](CC(C)C)NC(=O)[C@H](CC(C)C)NC(=O)[C@H](CCC(=O)O)NC(=O)[C@H](CC(C)C)NC(=O)[C@H](CO)NC(=O)[C@H](CC(C)C)NC(=O)[C@H](CC(=O)O)NC(=O)[C@@H](NC(=O)[C@H](CO)NC(=O)[C@@H](NC(=O)[C@@H]1CCCN1C(=O)[C@@H]1CCCN1C(=O)CNC(=O)[C@@H]1CCC(=O)N1)[C@@H](C)CC)[C@@H](C)CC)[C@@H](C)CC)[C@@H](C)CC)C(N)=O [[Leu^26, Har^35, Met, Glu^39]-sauvagine] |  | stimulates | very significant lowering of blood pressure
11 | H-SEEPPIS[Nle]DLSFHLLREVLEMARAEQLAQQAHLNRKLMEEI-NH2 [[Nle^8, Ser^11, Leu^33, Glu^40]-rCRF] |  | stimulates | very significant lowering of blood pressure
12 | H-SQE[dP]PISLDLTFHLLRE[Nle]LE[Nle]AKAEQEAEQAALNRLLLEEA-NH2 [[D-Pro^4, Nle^18,21]-AHC] |  | stimulates | very significant lowering of blood pressure
13 | H-SEEPPISLDLTFHLLREVLE[Nle]A[hArg]AEQLAQQAHLNRKLMEE[Nle]-NH2 |  | stimulates | very significant lowering of blood pressure
14 | H-SQ[dY][dP]PISLDLTFHLLRE[Nle]LE[Nle]AKAEQEAEQAALNRLLLEEA-NH2 [[D-Tyr^3, D-Pro^4, Nle^18, ^21]-AHC] |  | stimulates | very significant lowering of blood pressure
15 | H-PPISLDLTFHLLREVLEMARAEQLAQQAHLNRKLMEEI-NH2 |  | stimulates | very significant lowering of blood pressure
